In patent US5607926A, “Cephalosporin antibiotics” (Microcide Pharmaceuticals, Inc., priority 1995, dated 1997) one finds MIC and ED50 data, which are given here for seven compounds.

≈ marks a conversion by molar mass, not a printed value. Structures can show the parent of a compound that is named as a salt. Where two headings read alike, the source gives them in different places.

In experiment [1] the test system is S. aureus ATCC 29213. The experiment in a line: In vitro antibacterial evaluation, MIC by agar dilution, S. aureus ATCC 29213. In kind it is cell-based. To be noted: Staphylococcus aureus, ATCC29213. The method in brief: (§1)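 Two-fold dilutions of test compound, 128 μg/mL down to ≤0.25 μg/mL, were set in Mueller-Hinton agar in duplicate and spot-inoculated with about 10^4 cfu of log-phase culture. Plates were incubated 16-20 hours at 35°-36° C, and MIC taken as the lowest concentration inhibiting growth, following NCCLS agar dilution.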
A general note: Agar dilution tests growth on a series of plates holding different concentrations.

Experiment [2] relates to S. aureus Col8A (Meth^S)(lac^-). The experiment in a line: In vitro antibacterial evaluation, MIC by agar dilution, S. aureus Col8A. The conditions noted are these: Staphylococcus aureus. In kind it is cell-based. In short, it runs like this: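 Agar dilution per NCCLS (1991): two-fold dilutions from 128 μg/mL down to ≤0.25 μg/mL in Mueller-Hinton agar, each level in duplicate. Spots of about 10^4 cfu of log-phase culture; 16-20 h at 35°-36° C. MIC in μg/ml is the lowest concentration inhibiting growth.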

The subject of experiment [3] is S. haemolyticus (Meth^R). As to the kind of experiment: In vitro antibacterial evaluation, MIC by agar dilution, S. haemolyticus. It counts as cell-based. The conditions noted are these: Staphylococcus haemolyticus, read-out: MIC. In short, it runs like this:
as §1

Experiment [4] deals with E. faecium ATCC 35667. The experiment in a line: In vitro antibacterial evaluation, MIC by agar dilution, E. faecium ATCC 35667. In kind it is cell-based. The conditions noted are these: Enterococcus faecium, ATCC35667, read-out: MIC. The method in brief: as §1
In experiment [5] the test system is E. coli ATCC 25922. As to the kind of experiment: In vitro antibacterial evaluation, MIC by agar dilution, E. coli ATCC 25922. It counts as cell-based. To be noted: Escherichia coli, ATCC25922, read-out: MIC. In short, it runs like this: as §1
The test system of experiment [6] is S. aureus 76 (Meth^R)(lac^+). As to the kind of experiment: In vitro antibacterial evaluation, MIC by agar dilution, S. aureus 76. It counts as cell-based. The conditions noted are these: Staphylococcus aureus, read-out: MIC. The method in brief: as §1
Experiment [7] concerns E. faecalis ATCC 29212. The experiment in a line: In vitro antibacterial evaluation, MIC by agar dilution, E. faecalis ATCC 29212. The conditions noted are these: Enterococcus faecalis, ATCC29212; E. faecalis ATCC 29212; read-out: MIC. It counts as cell-based. The method in brief:
as §1

The test system of experiment [8] is methicillinsusceptible S. aureus strain ATCC 13709. The experiment in a line: In vivo antibacterial evaluation, murine model for lethal bacteremic peritonitis. Set-up: species or system S. aureus in female Swiss-Webster mice. To be noted: Staphylococcus aureus, ATCC13709, sc, 72 h, two equal SC doses at challenge and 2 hours later, mice, probit. Here is the method: Groups of 5 female Swiss-Webster mice (Simonsen, Gilroy, Calif.) each are challenged by the intraperitoneal (IP) route with ten-fold increments of a bacterial inoculum. This permits calculation of the mean lethal dose (LD50) and the LD100. For preliminary evaluation of a new antibiotic, mice are challenged IP with an LD100 titer of bacteria. In two equal doses administered at the time of bacterial challenge and 2 hours later, groups of 10 mice each are treated subcutaneously with two-fold increments of the test drug and an antibiotic of known efficacy in mice and humans (i.e., positive control). Mice are observed for 72 h. Those alive at 72 h are considered long term survivors. The total drug dose in mg/kg that protects 50% of mice in a group from death is termed the mean protective dose (PD50). PD50 s are similarly determined for several pathogens. The quantitative endpoints for the new drug are then compared with those obtained with reference antibiotics.
Six ten-fold dilutions of inoculum suspended in 0.5 mL of sterilized 7% hog gastric mucin (Sigma) are injected IP in groups of 5 mice each. A control group of 5 mice receive mucin alone. Mice are observed for 72 h. Those alive at 72 h are considered long term survivors. The mean lethal dose (LD50) and 100% lethal dose (LD100) are determined by the probit test.
For antibiotic efficacy studies, mice are challenged IP with bacterial titers that will afford an LD100 for the test strain. In two equal doses administered at the time of bacterial challenge and 2 hours later, groups of 10 mice each are treated by the subcutaneous route (SC) with twofold increments of the test antibiotic; another group is treated similarly with a reference antibiotic of known efficacy in animals and man. Drug doses can range from 0.01 to 512 mg/kg. If the drug is poorly soluble, Tween 20 or propylene glycol will be employed to solubilize the drug. Animals are observed for 72 h. The 50% protective dose (PD50) is calculated in mg/kg by the probit method. The PD50 is the same as the 50% effective dose (ED50) and the 50% curative dose (CD50). Samples of blood from the hearts of all animals that die and from half the mice that survive are cultured on brain-heart infusion agar. Animals that received a protective dosage of the test drug will be alive at 72 h, although they may appear moderately ill to very ill during the observation period. […] Most of these mice will die within 6 to 48 h. Those alive at 72 h will be considered long term survivors.
(§2) data reported for challenge with methicillinsusceptible S. aureus strain

Experiment [9] shares this test system. The experiment in a line: Challenge strain MIC. In kind it is cell-based. The conditions noted are these: Staphylococcus aureus. Here is the method: The compounds of the invention were evaluated against several β-lactamresistant bacteria strains by determining the minimum inhibitory concentration (MIC, μg/ml) of each compound with respect to each strain. The MIC, the lowest concentration of antibiotic which inhibits growth of the test organism, was determined by the agar dilution method.
To determine the MIC for bacterial isolates, the test compound was incorporated in a series of two-fold dilutions into liquified Mueller-Hinton agar. Upon solidification, a number of different bacterial strains were spot inoculated with a replicating device onto the agar surface. […] The procedures used in these studies have been standardized by the National Committee for Clinical Laboratory Standards (NCCLS), as per the NCCLS publication entitled METHODS FOR DILUTION ANTIMICROBIAL SUSCEPTIBILITY TESTS (1991), which is incorporated herein by reference.
Aliquots of antimicrobial agents were prepared in phosphate buffered saline (PBS) at pH 7.2. Tween 20 or DMSO was used as a solubilizing vehicle as needed. Standard methods of vortexing, sonicating and gentle heat were used to facilitate solubilizing the test agent. Typically, the concentration of the stock solution was 10× that of the highest drug concentration tested. A 1.28 mg/mL stock solution was used with a subsequent highest working concentration of 128 μg/mL. Serial two-fold dilutions were done through ≤0.25 μg/mL. Each drug level was tested in duplicate. Two-fold drug dilutions were done in sterile 50 mL tubes with a final drug volume of 5 mL. Upon the addition of 45 mL of molten agar, a 10-fold dilution resulted. Two, 25 mL. plates were then poured into 15×150 mm square Petri plates with grids and allowed to harden.
A control plate with a reference drug, either cefotaxime, vancomycin or imipenem, was used as the positive growth control. Stock concentrations of reference antibiotics were prepared and frozen at -80° C. Upon preparation, the control plates were sealed and stored in the refrigerator for up to 1 week prior to use; however, imipenem control plates had to be prepared just prior to use. All test plates were used within 24 hours of preparation.
Satisfactory results were obtained where the inoculum contained about 10^4 colony forming units (cfu) ±0.5 logs. Starting with pure cultures of the test isolates on agar plates, a few isolated colonies were transferred to a tube of nutrient broth and allowed to grow 4-6 hours at 35°-36° C. to reach log-phase growth. Dropwise addition of the broth culture to PBS was done to match a 0.5 McFarland turbidity standard equal to 10^8 cfu/mL. This was further diluted ten-fold in PBS to reach a working inoculum concentration of 10^7 cfu/mL. When 1 μL of the working inoculum was applied to the agar surface a concentration of about 10^4 cfu per spot was obtained.
Disposable sterile 1 μL loops were used to inoculate test plates, with each isolate in a designated grid on the agar plate. An alternate method of inoculation involved the use of a replica plater, a device with 48 steel pins allowing the simultaneous inoculation of multiple isolates. After the spots had dried, the plates were incubated at 35°-36° C. for 16-20 hours. Endpoints were assessed as the minimum inhibitory concentration (MIC) of antimicrobial agent.
as §2

The test system of experiment [10] is P. aeruginosa ATCC 27853. As to the kind of experiment: In vitro antibacterial evaluation, MIC by agar dilution, P. aeruginosa ATCC 27853. In kind it is cell-based. The conditions noted are these: Pseudomonas aeruginosa, ATCC27853, read-out: MIC. The method in brief: as §1
The mark [11] stands for this setting: ATCC13709, S. aureus ATCC 13709, read-out: Challenge str MIC.
Setting [12] is: S. aureus ATCC 29213, read-out: MIC.

For orientation: MIC means the lowest concentration found to suppress growth. The term ED50 denotes the dose at which the effect has come halfway, by size or by number of responders.

As to `N=C(N)SCc1ccccc1SC1=C(C(=O)O)N2C(=O)[C@@H](NC(=O)Cc3ccccc3CN)[C@H]2SC1` [Cmpd 101, (7R)-7-[((2-Aminomethylphenyl)acetyl)amino]-3-(2-isothiouroniummethylphenylthio)-3-cephem-4-carboxylate, trifluoroacetic acid salt], the MIC is 0.25 µg/mL in experiment [1]; 0.25 µg/mL in experiment [2]; 16 µg/mL in experiment [3]; 2 µg/mL in experiment [4]; greater than 32 µg/mL in [5]; 8 µg/mL in experiment [6]. The MIC was 1 µg/mL in experiment [7], 0.125 µg/mL in experiment [9] (setting [11]) and greater than 32 µg/mL in [10]. The ED50 in [8] (read-out: ED50) was determined as 0.65 mg/kg.

In the case of `Nc1nc(/C(=N/OCC2CC2)C(=O)N[C@@H]2C(=O)N3C(C(=O)O)=C(Sc4ccnn4-c4ccccc4)CS[C@H]23)cs1` [Cmpd 108, (7R)-7-[(Z)-2-(2-aminothiazol-4-yl)-2-(cyclopropylmethyloxyimino)acetamido]-3-(1-N-phenylpyrazol-5-ylthio)-3-cephem-4-carboxylic acid], the minimal inhibitory concentration (MIC) in [1] (setting [12]) was determined as 0.5 µg/mL (≈ 0.837 µM); in [2] it was 0.5 µg/mL (≈ 0.837 µM); in experiment [3], 16 µg/mL (≈ 26.8 µM); in experiment [4], 16 µg/mL (≈ 26.8 µM); in [5], 4 µg/mL (≈ 6.69 µM); in experiment [6], 8 µg/mL (≈ 13.4 µM). In addition, the minimal inhibitory concentration (MIC) in [7] came to 16 µg/mL (≈ 26.8 µM); in experiment [9] (setting [11]), 0.5 µg/mL (≈ 0.837 µM); in [10], 16 µg/mL (≈ 26.8 µM). The ED50 in [8] (read-out: ED50) is greater than 10 mg/kg.

In the case of `CSCC(=O)N[C@@H]1C(=O)N2C(C(=O)O)=C(Sc3ccccc3CSC(=N)N)CS[C@H]12` [Cmpd 127, (7R)-7-[(methylthioacetyl)amino]-3-(2-isothiouroniummethylphenylthio)-3-cephem-4-carboxylate, inner salt], the MIC in experiment [1] (setting [12]) is no more than 0.06 µg/mL; in experiment [2] it was no more than 0.06 µg/mL; in [4], 1 µg/mL; in [5] it was greater than 32 µg/mL; in experiment [6], 8 µg/mL; in [7] it was 1 µg/mL. Moreover, in experiment [10], the MIC was greater than 32 µg/mL. Moreover, the ED50 in experiment [8] (read-out: ED50) worked out at 0.59 mg/kg.

The compound `CN[C@H](CC(C)C)C(=O)N[C@H]1C(=O)N[C@@H](CC(N)=O)C(=O)N[C@H]2C(=O)N[C@H]3C(=O)N[C@H](C(=O)N[C@H](C(=O)O)c4cc(O)cc(O)c4-c4cc3ccc4O)[C@H](O)c3ccc(c(Cl)c3)Oc3cc2cc(c3O[C@@H]2O[C@H](CO)[C@@H](O)[C@H](O)[C@H]2O[C@H]2C[C@](C)(N)[C@H](O)[C@H](C)O2)Oc2ccc(cc2Cl)[C@H]1O` [Vancomycin, reference compound] returned a median effective dose (ED50) in experiment [8] of 2.81 mg/kg. Further, the MIC in [9] (ATCC13709, read-out: Challenge str MIC) turned out to be 1 µg/mL (≈ 0.69 µM).

With `CC(C)N=C(NC(C)C)SCC(=O)N[C@@H]1C(=O)N2C(C(=O)O)=C(Sc3ccccc3CSC(=N)N)CS[C@H]12` [Cmpd 125, (7R)-7-[((N,N'-diisopropylisothiouronium)acetyl)amino]-3-(2-isothiouroniummethylphenylthio)-3-cephem-4-carboxylate, trifluoroacetic acid salt], the MIC was 0.5 µg/mL in experiment [1] (setting [12]); 0.5 µg/mL in experiment [2]; 8 µg/mL in experiment [3]; 2 µg/mL in experiment [4]; greater than 32 µg/mL in experiment [5]; 8 µg/mL in experiment [6]. Further, the minimum inhibitory concentration (MIC) in [7] is 0.25 µg/mL; in [10] it was greater than 32 µg/mL. In experiment [8] (read-out: ED50), the 50% effective dose (ED50) was greater than 10 mg/kg.

Turning to `O=C(CS/C=C\Cl)N[C@@H]1C(=O)N2C(C(=O)O)=C(Sc3ccnn3-c3ccccc3)CS[C@H]12` [Cmpd 131, (7R)-7-[((Z-2-Chlorovinyl)thioacetyl)amino]-3-(1-N-phenylpyrazol-5-ylthio)-3-cephem-4-carboxylic acid], the MIC is 32 µg/mL (≈ 62.9 µM) in experiment [3]; 1 µg/mL (≈ 1.96 µM) in experiment [4]; greater than 32 µg/mL in experiment [5]; 4 µg/mL (≈ 7.86 µM) in [6]; 0.5 µg/mL (≈ 0.982 µM) in [7]; 0.06 µg/mL (≈ 0.118 µM) in [9] (setting [11]). For the same compound, the minimal inhibitory concentration (MIC) in experiment [10] is greater than 32 µg/mL. The median effective dose (ED50) in experiment [8] (read-out: ED50) came to 1.73 mg/kg.

Consider `N=C(N)NCCSCC(=O)N[C@@H]1C(=O)N2C(C(=O)O)=C(Sc3ccccc3CSC(=N)N)CS[C@H]12` [Cmpd 137, (7R)-7-[((2-guanidinoethylthio)acetyl)amino]-3-(2-isothiouroniummethylphenylthio)-3-cephem-4-carboxylate, trifluoroacetic acid salt], for which the MIC turned out to be 0.06 µg/mL in experiment [2]; 16 µg/mL in experiment [3]; 0.25 µg/mL in experiment [4]; 4 µg/mL in experiment [5]; 4 µg/mL in experiment [6]; 0.5 µg/mL in [7]. Further, the MIC in experiment [9] (setting [11]) was 0.06 µg/mL; in experiment [10] it was greater than 32 µg/mL. Also, in [8] (read-out: ED50), the ED50 turned out to be 0.75 mg/kg.
